ChEMBL document CHEMBL3244068 (J Med Chem, 1978)

Experiments:
[1] = Stability of the compound in acetone assessed as hydrolysis at 66 degC after 30 mins; type: physicochemical; details: 0.5 h
[2] = system: L1210; assay: Antitumor activity against mouse L1210 cells assessed as dose required to produce T/C of 125% administered for 10 days; type: functional
[3] = system: L1210; assay: Antitumor activity against mouse L1210 cells assessed as dose required to produce T/C of 125% administered for 15 days; type: functional
[4] = Ratio of LD50 for rat allografted with rat Walker 256 cells to ED90 for rat Walker 256 cells allografted in rat
[5] = system: W256; assay: Antitumor activity against rat Walker 256 cells allografted in rat; type: functional
[6] = species: Rattus norvegicus; assay: Toxicity in rat allografted with rat Walker 256 cells; type: organism-based
[7] = Drug metabolism assessed as log K of Holtzman rat liver esterase-mediated hydrolysis after 5 mins; type: ADME, tissue-based; details: isolated protein
[8] = system: P388; assay: Antitumor activity against mouse P388 cells allografted in mouse assessed as dose required to produce T/C of 125% administered for 9 days; type: functional
[9] = system: P388; assay: Antitumor activity against mouse P388 cells allografted in mouse assessed as dose required to produce T/C of 180% administered for 9 days; type: functional
[10] = system: L1210; assay: Antitumor activity against mouse L1210 cells assessed as dose required to produce T/C of 125% administered for 9 days; type: functional
[11] = system: L1210; assay: Antitumor activity against mouse L1210 cells assessed as dose required to produce T/C of 125% administered for 8 days; type: functional
[12] = system: P388; assay: Antitumor activity against mouse P388 cells allografted in mouse assessed as dose required to produce T/C of 125% administered for 10 days; type: functional
[13] = system: P388; assay: Antitumor activity against mouse P388 cells allografted in mouse assessed as dose required to produce T/C of 180% administered for 10 days; type: functional

| Compound | Ratio [4] | log1/CED90 [5] | log1/CLD50 [6] | also measured |
| --- | --- | --- | --- | --- |
| ClCCN(CCCl)c1ccc(/C=C/c2ccccc2)cc1 |  |  |  | log K [1]: -3.95; log(%) [1]: 1.26 |
| CS(=O)(=O)OCCN(CCOS(C)(=O)=O)c1ccc([N+](=O)[O-])cc1 |  |  |  | log(1/C) [2]: 3.74 |
| CC(=O)Nc1cc(N(CCOS(C)(=O)=O)CCOS(C)(=O)=O)ccc1N=O |  |  |  | log(1/C) [3]: 6.05 |
| CCOC(=O)c1ccc(N(CCOS(C)(=O)=O)CCOS(C)(=O)=O)cc1 |  |  |  | log(1/C) [3]: 4.07 |
| CS(=O)(=O)OCCN(CCOS(C)(=O)=O)c1ccccc1 |  |  |  | log(1/C) [3]: 3.97 |
| O=C(Oc1ccc(N(CCBr)CCBr)cc1)c1ccccc1 | 3.5 | 5.45 | 5.45 |  |
| Cc1ccccc1C(=O)Oc1ccc(N(CCBr)CCBr)cc1 | 3.5 | 4.96 | 4.96 |  |
| Cc1cccc(C)c1C(=O)Oc1ccc(N(CCBr)CCBr)cc1 | 3.5 | 3.81 | 3.58 |  |
| CCc1ccccc1C(=O)Oc1ccc(N(CCBr)CCBr)cc1 | 3.5 | 4.96 | 4.64 |  |
| CC(C)c1ccccc1C(=O)Oc1ccc(N(CCBr)CCBr)cc1 | 3.5 | 4.39 | 4.66 |  |
| Cc1cccc(C(=O)Oc2ccc(N(CCBr)CCBr)cc2)c1 | 3.5 | 5.18 | 5.16 |  |
| Cc1ccc(C(=O)Oc2ccc(N(CCBr)CCBr)cc2)cc1 | 3.5 | 4.94 | 5.32 |  |
| O=C(Oc1ccc(N(CCBr)CCBr)cc1)c1cccc(Cl)c1 | 3.5 | 4.96 | 5.11 |  |
| O=C(Oc1ccc(N(CCBr)CCBr)cc1)c1ccc(Cl)cc1 | 3.5 | 4.66 | 5.18 |  |
| COc1ccc(C(=O)Oc2ccc(N(CCBr)CCBr)cc2)cc1 | 3.5 | 5.12 | 5.21 |  |
| O=C(Oc1ccc(N(CCBr)CCBr)cc1)c1cccc(C(F)(F)F)c1 | 3.5 | 4.99 | 5.11 |  |
| O=C(Oc1ccc(N(CCBr)CCBr)cc1)c1cccc([N+](=O)[O-])c1 | 3.5 | 4.67 | 5.07 |  |
| O=C(Oc1ccc(N(CCBr)CCBr)cc1)c1ccc([N+](=O)[O-])cc1 | 3.5 | 4.86 | 5.37 |  |
| O=C(Oc1ccc(N(CCCl)CCCl)cc1)c1ccccc1 | 3.5 | 4.86 | 4.06 |  |
| Cc1ccccc1C(=O)Oc1ccc(N(CCCl)CCCl)cc1 | 3.5 | 4.55 | 3.71 |  |
| Cc1ccc(C(=O)Oc2ccc(N(CCCl)CCCl)cc2)cc1 | 3.5 | 4.78 | 4.2 |  |

| Compound | Ratio [4] | log1/CED90 [5] | log1/CLD50 [6] | also measured |
| --- | --- | --- | --- | --- |
| Cc1cccc(C)c1C(=O)Oc1ccc(N(CCCl)CCCl)cc1 | 3.5 | 3.31 | 3.1 |  |
| O=C(Oc1ccc(N(CCCl)CCCl)cc1)c1cccc(Br)c1 | 3.5 | 4.22 | 3.84 |  |
| O=C(Oc1ccc(N(CCCl)CCCl)cc1)c1ccc(Br)cc1 | 3.5 | 4.84 | 4.19 |  |
| O=C(Oc1ccc(N(CCCl)CCCl)cc1)c1cccc(Cl)c1 | 3.5 | 4.55 | 3.95 |  |
| O=C(Oc1ccc(N(CCCl)CCCl)cc1)c1cccc(F)c1 | 3.5 | 4.88 | 4.38 |  |
| O=C(Oc1ccc(N(CCCl)CCCl)cc1)c1ccc(F)cc1 | 3.5 | 4.9 | 4.21 |  |
| COc1ccc(C(=O)Oc2ccc(N(CCCl)CCCl)cc2)cc1 | 3.5 | 4.89 | 4.11 |  |
| O=C(Oc1ccc(N(CCCl)CCCl)cc1)c1cccc([N+](=O)[O-])c1 | 3.5 | 4.81 | 4.4 |  |
| COc1cccc(C(=O)Oc2ccc(N(CCBr)CCBr)cc2)c1 | 3.5 |  | 5.25 |  |
| CCN(CC)c1ccc(OC(=O)c2ccc([N+](=O)[O-])cc2)cc1 |  |  |  | log K [7]: 0.67 |
| CCN(CC)c1ccc(OC(=O)c2cccc([N+](=O)[O-])c2)cc1 |  |  |  | log K [7]: 0.55 |
| CCN(CC)c1ccc(OC(=O)c2ccc(C(F)(F)F)cc2)cc1 |  |  |  | log K [7]: 0.45 |
| CCN(CC)c1ccc(OC(=O)c2cccc(C(F)(F)F)c2)cc1 |  |  |  | log K [7]: 0.34 |
| CCN(CC)c1ccc(OC(=O)c2cccc(Cl)c2)cc1 |  |  |  | log K [7]: 0.32 |
| CCN(CC)c1ccc(OC(=O)c2ccc(Cl)cc2)cc1 |  |  |  | log K [7]: 0.2 |
| CCN(CC)c1ccc(OC(=O)c2ccc(C)cc2)cc1 |  |  |  | log K [7]: -0.41 |
| CCN(CC)c1ccc(OC(=O)c2cccc(C)c2)cc1 |  |  |  | log K [7]: 0.32 |
| CCN(CC)c1ccc(OC(=O)c2ccc(OC)cc2)cc1 |  |  |  | log K [7]: -0.49 |
| CCN(CC)c1ccc(OC(=O)c2cccc(OC)c2)cc1 |  |  |  | log K [7]: 0.15 |
| CCN(CC)c1ccc(OC(=O)c2ccccc2)cc1 |  |  |  | log K [7]: -0.26 |
| CCOC(=O)CCOc1ccccc1N(CCCl)CCCl |  |  |  | log(1/C) [3]: 4.67 |

| Compound | Ratio [4] | log1/CED90 [5] | log1/CLD50 [6] | also measured |
| --- | --- | --- | --- | --- |
| O=C(O)c1ccccc1N(CCO)CCCl |  |  |  | log(1/C) [3]: 4.94 |
| CCC(=O)OCC(Br)CBr (stereo not drawn) |  |  |  | log(1/C) [3]: 5.83 |
| ClCCN(CCCl)c1ccc(/N=C/c2ccccc2)cc1 |  |  |  | log(1/C) [8]: 5.33; log(1/C) [9]: 5 |
| CS(=O)(=O)OCCN(CCOS(C)(=O)=O)c1ccc([N+](=O)[O-])c(Cl)c1 |  |  |  | log(1/C) [3]: 3.02 |
| Cc1ccc(S(=O)(=O)OCCN(CCOS(=O)(=O)c2ccc(C)cc2)c2cccc(F)c2)cc1 |  |  |  | log(1/C) [3]: 3.31 |
| Cc1ccc(S(=O)(=O)OCCN(CCOS(=O)(=O)c2ccc(C)cc2)c2ccccc2)cc1 |  |  |  | log(1/C) [3]: 3.8 |
| CS(=O)(=O)OCCN(CCOS(C)(=O)=O)c1cccc([N+](=O)[O-])c1 |  |  |  | log(1/C) [2]: 3.93 |
| CS(=O)(=O)OCCN(CCOS(C)(=O)=O)c1cccc(C(F)(F)F)c1 |  |  |  | log(1/C) [3]: 4.42 |
| CCOC(=O)c1cccc(N(CCOS(C)(=O)=O)CCOS(C)(=O)=O)c1 |  |  |  | log(1/C) [2]: 4.63 |
| CS(=O)(=O)OCCN(CCOS(C)(=O)=O)c1cccc(Cl)c1 |  |  |  | log(1/C) [2]: 4.85 |
| CCOC(=O)c1cc(N(CCOS(C)(=O)=O)CCOS(C)(=O)=O)ccc1N |  |  |  | log(1/C) [3]: 4.85 |
| Cc1ccc(S(=O)(=O)OCCN(CCOS(=O)(=O)c2ccc(C)cc2)c2ccc(F)cc2)cc1 |  |  |  | log(1/C) [10]: 4.2 |
| CC(=O)Nc1cccc(N(CCOS(C)(=O)=O)CCOS(C)(=O)=O)c1 |  |  |  | log(1/C) [10]: 5.67 |
| CS(=O)(=O)OCCN(CCOS(C)(=O)=O)c1ccc(N=O)c(Cl)c1 |  |  |  | log(1/C) [3]: 6.03 |
| CS(=O)(=O)OCCN(CCOS(C)(=O)=O)c1ccc(N=O)cc1 |  |  |  | log(1/C) [11]: 6.13 |
| Cc1cc(N(CCOS(C)(=O)=O)CCOS(C)(=O)=O)ccc1N=O |  |  |  | log(1/C) [2]: 6.4 |
| CCOC(=O)CCCc1ccc(N(CCCl)CCCl)cc1 |  |  |  | log K [1]: -3.84; log(%) [1]: 1.36 |
| O=C(O)CCCc1ccc(N(CCCl)CCCl)cc1 [CHLORAMBUCIL] |  | 5.12 | 4.03 | log K [1]: -3.65 |
| ClCCN(CCCl)c1ccc2ccccc2c1 [CHLORNAPHAZINE] |  |  |  | log(%) [1]: 1.18 |
| NC(Cc1ccc(N(CCCl)CCCl)cc1)C(=O)O (stereo not drawn) [SARCOLYSIN] |  |  |  | log(1/C) [3]: 4.94; log(1/C) [12]: 5.61; log(1/C) [13]: 5.18 |
